Measured values taken from patent US11028066B2, “Inhibitors of lysine specific demethylase-1” (CELGENE QUANTICEL RESEARCH, INC., priority 2014, dated 2021).

Legend:
full-length human LSD1 = full-length human LSD1 (Homo sapiens (Human), UniProt O60341); experiment: In vitro enzyme inhibition assay LSD-1 (TR-FRET); type: biochemical; conditions: H3K4me1-biotin peptide
Experimental: This assay determines the ability of a test compound to inhibit LSD1 demethylase activity.
The enzymatic assay of LSD1 activity is based on Time Resolved-Fluorescence Resonance Energy Transfer (TR-FRET) detection.
Plates were read by EnVision Multilabel Reader in TR-FRET mode (excitation at 320 nm, emission at 615 nm and 665 nm) after 1 hour incubation at room temperature.
The ability of the compounds disclosed herein to inhibit LSD1 activity was quantified and the respective IC50 value was determined.

Kasumi-1 = Kasumi-1 AML cell line proliferation assay (Cell-MTS assay); type: cell-based; conditions: Homo sapiens, 168 hours incubation
Description: Colorimetric cellular assay to assess the ability of LSD-1 small molecule inhibitors to effect the proliferation of the established AML cancer cell line Kasumi-1.
This Cell-MTS assay is a 7-day plate based colorimetric assay which quantifies the amount of newly generated NADH in the presence and absence of test compound. These NADH levels are used as a proxy for the quantification of cancer cell proliferation.
The established cancer cell line Kasumi-1 with a verified p53 mutation were purchased from American Type Culture Collection (ATCC) and routinely passaged according to ATCC published protocols. For routine assay these cells were seeded at a density of 20,000 cells per 96-well. 24 hours after plating, cells received an 11 point dilution of test compound with final concentration ranges from 100 μM to 2.0 nM. Cells are incubated in the presence of compound for 168 hours at 37° C., 5% CO2. At the end of this compound incubation period, 80 μl of media is removed and 20 μL of CellTiter 96® AQueous Non-Radioactive Cell Proliferation Assay solution (Promega) is added. The cells are incubated until the OD490 is >0.6. IC50 values are calculated using the IDBS XLfit software package and include background subtracted OD490 values and normalization to DMSO controls.
Table 5 provides the Kasumi-1 cellular IC50 values of various substituted heterocyclic compounds disclosed herein.

THP-1 (AML) cells = experiment: LSD1 CD11b cellular assay (flow cytometry); type: cell-based; conditions: Homo sapiens, THP-1, 96 h; CD11b expressing cells, 4 days incubation
Experimental: To analyze LSD1 inhibitor efficacy in cells, a CD11b flow cytometry assay was performed. LSD1 inhibition induces CD11b expression in THP-1 (AML) cells which can be measured by flow cytometry. […] LSD1 test compounds were serially diluted in DMSO. The dilutions were added to each well accordingly to a final concentration of 0.2% DMSO. The cells were incubated at 37 degrees Celsius in 5% CO2 for 4 days. 250 μL of each well was transferred to a well in a 96 well round bottom plate. The plate was centrifuged at 1200 rpm at 4 degrees Celsius in a Beckman Coulter Alegra 6KR centrifuge for 5 minutes. The media was removed leaving the cells at the bottom of the wells. The cells were washed in 100 μL cold HBSS (Hank's Balanced Salt Solution) plus 2% BSA (Bovine Serum Albumin) solution and centrifuged at 1200 rpm at 4 degrees Celsius for 5 minutes. The wash was removed. […] The cells were centrifuged and washed two times in 100 μL HBSS plus 2% BSA. After the final spin the cells were resuspended in 100 μL HBSS plus 2% BSA containing 1 ug/mL DAPI (4′,6-diamidino-2-phenylindole). The cells were then analyzed by flow cytometry in a BD FACSAria machine. Cells were analyzed for CD11b expression. The percent of CD11b expressing cells for each inhibitor concentration was used to determine an IC50 curve for each compound analyzed.

Compound	IC50 (full-length human LSD1)	IC50 (Kasumi-1)	IC50 (THP-1 (AML) cells)
CCc1ccc(-c2c(-c3ccc(C#N)cc3)nc(NC[C@H]3CCNC3)c(=O)n2C)cc1 [Example 28, 4-[3-(4-ethylphenyl)-4-methyl-5-oxo-6-{[(3S)-pyrrolidin-3-ylmethyl]amino}-4,5-dihydropyrazin-2-yl]benzonitrile]	< 100 nM	≤ 100 nM	100 to 1000 nM
COc1ccc(-c2c(-c3ccc(C#N)cc3)nc(NC[C@H]3CCNC3)c(=O)n2C)cc1 [Example 31, 4-[3-(4-methoxyphenyl)-4-methyl-5-oxo-6-{[(3S)-pyrrolidin-3-ylmethyl]amino}-4,5-dihydropyrazin-2-yl]benzonitrile]	< 100 nM	≤ 100 nM	< 100 nM
Cn1c(-c2ccc(OCC3CC3)cc2)c(-c2ccc(C#N)c(F)c2)nc(NC[C@H]2CCNC2)c1=O [Example 61, 4-{3-(4-cyclopropylmethoxy-phenyl)-4-methyl-5-oxo-6-[((3S)-pyrrolidin-3-ylmethyl)-amino]-4,5-dihydro-pyrazin-2-yl}-2-fluoro-benzonitrile]	< 100 nM		< 100 nM
CCOc1ccc(-c2c(-c3ccc(C#N)c(F)c3)nc(NC[C@H]3CCNC3)c(=O)n2C)cc1 [Example 62, 4-{3-(4-ethoxy-phenyl)-4-methyl-5-oxo-6-[((3S)-pyrrolidin-3-ylmethyl)-amino]-4,5-dihydro-pyrazin-2-yl}-2-fluoro-benzonitrile]	< 100 nM		< 100 nM
Cn1c(-c2ccc(OC(F)(F)F)cc2)c(-c2ccc(C#N)c(F)c2)nc(NC[C@H]2CCNC2)c1=O [Example 63, 2-fluoro-4-[4-methyl-5-oxo-6-[((3S)-pyrrolidin-3-ylmethyl)-amino]-3-(4-trifluoromethoxy-phenyl)-4,5-dihydro-pyrazin-2-yl]-benzonitrile]	< 100 nM		< 100 nM
CNC1CCN(c2nc(-c3ccc(C#N)c(F)c3)c(-c3ccc(C)cc3)n(CCCO)c2=O)CC1 [Example 64, 2-Fluoro-4-[4-(3-hydroxy-propyl)-6-(4-methylamino-piperidin-1-yl)-5-oxo-3-p-tolyl-4,5-dihydro-pyrazin-2-yl]-benzonitrile]	< 100 nM		< 100 nM
CNC1CCN(c2nc(-c3ccc(C#N)c(F)c3)c(-c3ccc(C)cc3)n(CCO)c2=O)CC1 [Example 65, 2-Fluoro-4-[4-(2-hydroxy-ethyl)-6-(4-methylamino-piperidin-1-yl)-5-oxo-3-p-tolyl-4,5-dihydro-pyrazin-2-yl]-benzonitrile]	< 100 nM		< 100 nM
COc1ccc(-c2c(-c3ccc(C#N)c(F)c3)cc(N3CCC(N)CC3)c(=O)n2C)cc1 [Example 67, 4-(5-(4-aminopiperidin-1-yl)-2-(4-methoxyphenyl)-1-methyl-6-oxo-1,6-dihydropyridin-3-yl)-2-fluorobenzonitrile]	< 100 nM		< 100 nM
COc1ccc(-c2c(-c3ccc(C#N)nc3)cc(N3CCC(N)CC3)c(=O)n2C)cc1 [Example 68, 5-(5-(4-aminopiperidin-1-yl)-2-(4-methoxyphenyl)-1-methyl-6-oxo-1,6-dihydropyridin-3-yl)picolinonitrile]	< 100 nM		100 to 1000 nM
COc1ccc(-c2c(-c3ccc(C#N)nc3)cc(NC[C@H]3CCNC3)c(=O)n2C)cc1 [Example 69, (S)-5-(2-(4-methoxyphenyl)-1-methyl-6-oxo-5-(pyrrolidin-3-ylmethylamino)-1,6-dihydropyridin-3-yl)picolinonitrile]	< 100 nM		100 to 1000 nM
CCc1ccc(-c2c(-c3ccc(C#N)nc3)cc(NC[C@H]3CCNC3)c(=O)n2C)cc1 [Example 71, (S)-5-(2-(4-ethylphenyl)-1-methyl-6-oxo-5-(pyrrolidin-3-ylmethylamino)-1,6-dihydropyridin-3-yl)picolinonitrile]	< 100 nM		< 100 nM
CCc1ccc(-c2c(-c3ccc(C#N)c(F)c3)cc(NC[C@H]3CCNC3)c(=O)n2C)cc1 [Example 72, (S)-4-(2-(4-ethylphenyl)-1-methyl-6-oxo-5-(pyrrolidin-3-ylmethylamino)-1,6-dihydropyridin-3-yl)-2-fluorobenzonitrile]	< 100 nM		< 100 nM
Cn1c(-c2ccc(C3CC3)cc2)c(-c2ccc(C#N)nc2)cc(NC[C@H]2CCNC2)c1=O [Example 73, (S)-5-(2-(4-cyclopropylphenyl)-1-methyl-6-oxo-5-(pyrrolidin-3-ylmethylamino)-1,6-dihydropyridin-3-yl)picolinonitrile]	< 100 nM		< 100 nM
CNC1CCN(c2cc(-c3ccc(C#N)cc3)c(-c3ccc(OC)cc3)n(C)c2=O)CC1 [Example 78, 4-{2-(4-methoxyphenyl)-1-methyl-5-[4-(methylamino)piperidyl]-6-oxo-3-hydropyridyl}benzenecarbonitrile]	< 100 nM		< 100 nM
CNC1CCN(c2cc(-c3ccc(C#N)c(F)c3)c(-c3ccc(OC)cc3)n(C)c2=O)CC1 [Example 79, 2-fluoro-4-{2-(4-methoxyphenyl)-1-methyl-5-[4-(methylamino)piperidyl]-6-oxo(3-hydropyridyl)}benzenecarbonitrile]	< 100 nM		< 100 nM
CNC1CCN(c2cc(-c3ccc(C#N)cc3)c(-c3ccc(C)cc3)n(C)c2=O)CC1 [Example 80, 4-{1-methyl-5-[4-(methylamino)piperidyl]-2-(4-methylphenyl)-6-oxo-3-hydropyridyl}benzenecarbonitrile]	< 100 nM		< 100 nM
COc1ccc(-c2c(-c3ccc(C#N)cc3)cc(N3CCC(N)CC3)c(=O)n2CC2CC2)cc1 [Example 81, 4-[5-(4-aminopiperidin-1-yl)-1-(cyclopropylmethyl)-2-(4-methoxyphenyl)-6-oxopyridin-3-yl]benzonitrile]	< 100 nM		< 100 nM
CCn1c(-c2ccc(OC)cc2)c(-c2ccc(C#N)cc2)cc(N2CCC(N)CC2)c1=O [Example 82, 4-[5-(4-aminopiperidin-1-yl)-1-ethyl-2-(4-methoxyphenyl)-6-oxopyridin-3-yl]benzonitrile]	< 100 nM		< 100 nM
COc1ccc(-c2c(-c3ccc(C#N)c(F)c3)cc(N3CCC(N)CC3)c(=O)n2CC2CC2)cc1 [Example 85, 4-[5-(4-aminopiperidin-1-yl)-1-(cyclopropylmethyl)-2-(4-methoxyphenyl)-6-oxopyridin-3-yl]-2-fluorobenzonitrile]	< 100 nM		< 100 nM
CNC1CCN(c2cc(-c3ccc(C#N)c(F)c3)c(-c3ccc(OC)c(F)c3)n(C)c2=O)CC1 [Example 86, 2-fluoro-4-[2-(3-fluoro-4-methoxyphenyl)-1-methyl-5-[4-(methylamino)piperidin-1-yl]-6-oxopyridin-3-yl]benzonitrile]	< 100 nM		< 100 nM
COc1ccc(-c2c(-c3ccc(C#N)c(F)c3)nc(N3CCC(N)CC3)c(=O)n2CC(N)=O)cc1 [Example 88, 2-[3-(4-aminopiperidyl)-5-(4-cyano-3-fluorophenyl)-6-(4-methoxyphenyl)-2-oxohydropyrazinyl]acetamide]	< 100 nM		< 100 nM
COc1ccc(-c2c(-c3ccc(C#N)c(F)c3)nc(N3CCC(N)CC3)c(=O)n2CCC(N)=O)cc1 [Example 89, 3-[3-(4-aminopiperidyl)-5-(4-cyano-3-fluorophenyl)-6-(4-methoxyphenyl)-2-oxohydropyrazinyl]propanamide]	< 100 nM		< 100 nM
COc1ccc(-c2c(-c3ccc(C#N)c(F)c3)nc(N3CCC(N)CC3)c(=O)n2CCCC(N)=O)cc1 [Example 90, 4-[3-(4-aminopiperidyl)-5-(4-cyano-3-fluorophenyl)-6-(4-methoxyphenyl)-2-oxohydropyrazinyl]butanamide]	< 100 nM		< 100 nM
CNC1CCN(c2cc(-c3ccc(C#N)cc3)c(-c3ccc(N(C)C)nc3)n(C)c2=O)CC1 [Example 92, 4-{2-[6-(dimethylamino)(3-pyridyl)]-1-methyl-5-[4-(methylamino)piperidyl]-6-oxo-3-hydropyridyl}benzenecarbonitrile]	< 100 nM		< 100 nM
